Source: US20230049917A1, “Pharmaceutical Composition of CASR Modulators and Methods and Uses Thereof” (Lupin Limited, priority 2019, published 2023)
Read-outs that look alike come from different tables or passages of the source.

Columns and labels:
[1] = cited from earlier work
[2] = Pharmacokinetic analysis after oral administration of the formulation to rats; format: in vivo; conditions: male, Sprague Dawley, rat, 5 mg/kg
Experimental: Male Sprague Dawley Rats (weight 225±25 gm; aged 8 to 10 weeks) were administered orally with the formulation. Each of the tested compounds was dosed at 5 mg/kg at a dose volume of 1 mL/kg. Blood samples were collected at time points 0.25, 0.5, 1, 2, 4, 6, 8 and 24 hours and analyzed the plasma concentrations of administered compound and calculated PK parameters. The plasma concentrations of the tested compounds were measured by liquid chromatography with tandem mass spectrometry (LCMS-MS) using […] extraction method. The plasma concentration-time data was subjected to Non-Compartmental Analysis using Phoenix WinNonlin® (Version 5.3) software to assess the pharmacokinetic parameters. Peak plasma concentrations (Cmax) and time for the peak plasma concentrations (Tmax) were the observed values. The area under the concentration time curve (AUC) was calculated by linear trapezoidal rule.

[3] = CKD patients not on dialysis, week 32

AUC(0-t) ([2]; in vivo, po) | Cmax ([2]; in vivo, po) | Tmax ([2]; in vivo, po) | SMILES | further results
 |  |  | C[C@@H](NCCCc1cccc(C(F)(F)F)c1)c1cccc2ccccc12 [Cinacalcet] | phosphorus levels [1, 3]: 4.5 ± 1.0 mg/dL; phosphorus levels, change [1, 3]: +21.4%; serum calcium levels, frequently observed ([1]; patients with CKD not on dialysis): < 8.4 mg/dL
 |  |  | C[C@@H](NC[C@H]1CN(c2cc(C(=O)O)cc(C(F)(F)F)c2)CCO1)c1cccc2ccccc12 [Compound 1, 3-((S)-2-((((R)-1-(naphthalen-1-yl)ethyl)amino)methyl)morpholino)-5-(trifluoromethyl)benzoic acid] | AUC(0-t) ([2]; oral, dose volume 1 mL/kg, plasma, sampling to 24 hours, read-out: AUC0-1): 7.3 ± 0.5 µM·h; Cmax ([2]; oral, plasma, read-out: Cmax): 3.6 ± 1 µM; Tmax ([2]; oral, plasma, read-out: Tmax): 15 to 60 min
16 ± 3 µM·h | 4.9 ± 3 µM | 15 min | Cc1ccc(N2C[C@H](CCN[C@H](C)c3cccc4ccccc34)Oc3ccccc32)cc1C(=O)O.Cl [Compound 2, 2-methyl-5-((S)-2-(2-(((R)-1-(naphthalen-1-yl)ethyl)amino)ethyl)-2H-benzo[b][1,4]oxazin-4(3H)-yl)benzoic acid] | 
5.5 ± 1 µM·h | 1.5 ± 1 µM | 30 to 120 min | COc1cc([C@@H](C)NC[C@@H]2Cc3ccccc3[C@H](c3ccc(C)c(C(=O)O)c3C)C2)ccc1F.Cl [Compound 4, 3-((1R,3S)-3-((((R)-1-(4-fluoro-3-methoxyphenyl)ethyl)amino)methyl)-1,2,3,4-tetrahydronaphthalen-1-yl)-2,6-dimethylbenzoic acid] | 
